Here are results for five molecules from patent US20250019369A1, “N-(4-aminocyclohexyl)pyrimidine-4-carboxamide derivatives as CD38 inhibitors” (Cerevance, Inc., priority 2021, published 2025).

Data set [1] is described as follows: PK brain permeability in C57BL/6 mice after single oral gavage. As to conditions: 2 hours post dose; for concentration at 2 h / Kpu,u (unbound brain/plasma partition coefficient) at 2 h: male, C57BL/6, mouse; for concentration at 2 h: po, 10 mg/kg; for Kpu,u (unbound brain/plasma partition coefficient) at 2 h / brain permeability (in words): oral 10 mg/kg; for Kpu,u (unbound brain/plasma partition coefficient) at 2 h: read-out: Kpu,u (unbound partitioning coefficient, Cb,u/Cp,u); for brain permeability (in words): comment on Table 3. Format: in vivo. Here is the method: The distribution of compounds into the brain in vivo was determined in C57BL/6 mice following single oral (po) gavage administration.
Test compounds were formulated at 1 mg/mL in 0.5% HPMC E4 M, 0.2% Tween 80 in water to achieve solutions or homogenous suspensions suitable for po administration.
Formulations were administered to 3 male C57BL/6 mice at a volume of 10 mL/kg resulting in a dose level of 10 mg/kg. Blood samples were collected at 1 and 2 hours post dose into tubes containing K2EDTA as anticoagulant, processed to plasma and stored at −60° C. or lower until LC-MS/MS analysis. Brains were harvested 2 hours post dose, rinsed with saline, dried, weighed and homogenised under ice cold conditions. Brain homogenates were stored at −60° C. or lower until LC-MS/MS analysis.
Dose formulation concentrations were verified using a LC-UV or LC-MS/MS method. Test compound concentrations in plasma and brain homogenate were quantitatively determined using LC-MS/MS methods developed in individual matrices against calibration curves with QC samples included and acceptance criteria as per CRO SOPs. Concentrations in brain homogenate were corrected for the dilution factor used to prepare the homogenate to give concentrations in whole brain tissue.
Plasma and brain concentration versus time data were reported and plotted in excel. The brain to plasma ratio at 2 hours post dose was calculated for each animal using the following equation:
Brain:plasma=brain concentration (ng/g) at 2 h/plasma concentration (ng/mL) at 2 h
As only unbound test compound is available to exert an effect on the target, unbound plasma (Cp,u) and unbound brain (Cb,u) concentrations were calculated by correcting the total concentrations for the unbound fraction in plasma (fu,p) or brain (fu,b) determined from in vitro plasma protein or brain tissue binding assays using the following equations: […]
The unbound partitioning coefficient (Kpu,u) was then calculated based on the ratio of Cb,u to Cp,u using the following equation: […]
In these studies, mice were orally administrated a 10 mg/kg dose and sacrificed 2 hours post dose and tissue samples (brain homogenate and plasma) were analyzed subsequently as described above.

For a further data set, the target named is Recombinant human CD38 (Homo sapiens (Human), UniProt P28907). Kind of data set: Human CD38 hydrolase assay (fluorescence, ε-NAD substrate). It counts as biochemical. As to conditions: recombinant human CD38 0.8 nM, 4 μM ε-NAD, 30 min preincubation at 25° C., pH 7.4. Here is the method: The ability of test compounds to inhibit human CD38 hydrolase activity was measured in a fluorescence-based assay using non-physiological NAD^+ substrate analogue 1,N^6-etheno NAD^+ (ε-NAD). Recombinant human CD38 (0.8 nM) was preincubated with test compounds in 384-well black microplates for 30 min at 25° C. in PBS (—Ca^2+/Mg^2+) containing 0.005% BSA (pH 7.4). CD38 hydrolase activity was initiated by addition of 4 μM ε-NAD, which yields the fluorescent product 1,N^6-etheno ADP-ribose. Formation of fluorescent product was followed using ClarioStar Plus (BMG) microplate reader by reading fluorescence (excitation λ=300 nm; emission λ=410 nm) at two time points, one immediately after substrate addition (t=0) and one at 10 min (t=10).
Data was analysed by subtracting the values detected at t=0 from t=10 to correct for variation in baseline fluorescence. Fluorescence values were converted to percent inhibition using the average of high signal (CD38 and ε-NAD) and low signal (CD38 and ε-NAD in the presence of a tool CD38 inhibitor) control wells. IC50 values were determined from a 10-point, half log concentration response curve with a four-parameter logistic equation.

A short description of data set [2]: Tissue binding assay, brain homogenate (equilibrium dialysis). As to conditions: dialysis 4 hours at 37° C., dilution factor 4. It counts as in vitro ADME. Here is the method:
Buffer preparation. A basic solution was prepared by dissolving 14.2 g/L Na2HPO4 and 8.77 g/L NaCl in deionized H2O. An acidic solution was prepared by dissolving 15.6 g/L NaH2PO4·2H2O and 8.77 g/L NaCl in deionized H2O. Using the acidic solution, the basic solution was then titrated to pH 7.4±0.1 and stored at 4° C. for up to 1 month. The stop solution was 100% CH3CN containing 200 ng/mL tolbutamide, 200 ng/mL labetalol and 50 ng/mL metformin.
Test method. Dialysis membrane strips were soaked in ultra-pure water at room temperature for ˜1 hour. Each membrane strip containing 2 membranes was separated and soaked in 20:80 EtOH/H2O (v/v) for ˜20 min, after which they were ready for use or were stored in the solution at 2-8° C. for up to 1 month. Prior to the experiment, the membrane was rinsed and soaked for 20 min in ultra-pure water. On the day of experiment, brain homogenate was thawed in a water bath at room temperature and incubated at 37° C. for 10 min before use. Test and control compounds were dissolved in DMSO to achieve 10 mM stock solutions. DMSO working solutions were prepared at 400 μM by diluting 10 μL of stock solution. To prepare the time zero (t=0) samples to be used for recovery determination, 50 μL aliquots of loading matrix were transferred in triplicate to the sample collection plate. The samples were immediately matched with opposite blank buffer to obtain a final volume of 100 μL of 1:1 matrix/dialysis buffer (v/v) in each well. 500 μL of stop solution were added to these t=0 samples. They were then stored at 2-8° C. pending further processes along with other post-dialysis samples. To load the dialysis device, an aliquot of 150 μL of the loading matrix was transferred to the donor side of each dialysis well in triplicate, and 150 μL of the dialysis buffer was loaded to the receiver side of the well. The dialysis plate was placed in a humidified incubator at 37° C. with 5% CO2 on a shaking platform that rotated slowly (about 100 rpm) for 4 hours. At the end of the dialysis, aliquots of 50 μL of samples were taken from both the buffer side and the matrix side of the dialysis device. These samples were transferred into new 96-well plates. Each sample was mixed with an equal volume of opposite blank matrix (buffer or matrix) to reach a final volume of 100 μL of 1:1 matrix/dialysis buffer (v/v) in each well. All samples were further processed by adding 500 μL of stop solution containing internal standards. The mixture was vortexed and centrifuged at 4000 rpm for about 20 min. An aliquot of 100 μL of supernatant of all the samples was then removed for LC-MS/MS analysis. The single blank samples were prepared by transferring 50 μL of blank matrix to a 96-well plate and adding 50 μL of blank PBS buffer to each well. Then the matrix-matched samples were further processed by adding 500 μL of stop solution containing internal standards, following the same sample processing method as the dialysis samples.
Data analysis. The % undiluted unbound, % undiluted bound and % recovery were calculated using the following equations:
% Undiluted Unbound=100*1/D/((1/(F/T)−1)+1/D)
% Undiluted Bound=100−% Undiluted Unbound
where F is the analyte concentration or peak area ratio of analyte/internal standard on the buffer (receiver) side of the membrane; T is the analyte concentration or peak area ratio of analyte/internal standard on the matrix (donor) side of the membrane; To is the analyte concentration or the peak area ratio of analyte/internal standard in the loading matrix sample at time zero; and D is the dilution factor determined as 4 in this assay.
(In general: Equilibrium dialysis compares concentrations on both sides of a semipermeable membrane.)

The mark [3] stands for this setting: brain, read-out: total brain conc.
[4] abbreviates: brain, total corrected for unbound fraction in brain, read-out: free brain conc.
Where [5] appears, read: plasma, read-out: total plasma conc.
[6] abbreviates: plasma, total corrected for unbound fraction in plasma, read-out: free plasma conc.

The term IC50 denotes the concentration needed to halve the response being measured.

Like-named read-outs stand apart in the source and are kept apart here.

Sequence of Recombinant human CD38 (P28907 whole entry): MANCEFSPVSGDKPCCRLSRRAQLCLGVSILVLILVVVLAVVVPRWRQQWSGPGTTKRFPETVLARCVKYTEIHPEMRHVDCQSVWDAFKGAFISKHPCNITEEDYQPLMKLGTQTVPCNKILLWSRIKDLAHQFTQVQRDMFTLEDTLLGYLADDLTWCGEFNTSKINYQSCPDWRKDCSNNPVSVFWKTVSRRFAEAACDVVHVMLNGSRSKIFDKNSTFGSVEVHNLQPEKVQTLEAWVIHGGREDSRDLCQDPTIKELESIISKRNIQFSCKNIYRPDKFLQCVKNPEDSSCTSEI

In the case of `Cc1cc(C(=O)N[C@H]2CC[C@H](NCC(F)(F)F)CC2)nc(-n2ccnc2)n1` [Example 1, 2-(1H-imidazol-1-yl)-6-methyl-N-((1r,4r)-4-((2,2,2-trifluoroethyl)amino)cyclohexyl)pyrimidine-4-carboxamide], the concentration at 2 h turned out to be 5.51 µM in data set [1] (setting [3]), 3.8 µM in data set [1] (setting [4]), 21.9 µM in data set [1] (setting [5]) and 2.85 µM in data set [1] (setting [6]). Moreover, in data set [1], the Kpu,u (unbound brain/plasma partition coefficient) at 2 h came to 1.33. The IC50 at Recombinant human CD38 was at most 0.04 µM. For the same molecule, the “Mouse brain (% unbound)” value in data set [2] is reported as 68.9 % unbound.
`Cc1cc(C(=O)N[C@H]2CC[C@H](NCC(F)F)CC2)nc(-n2ccnc2)n1` [Example 2, N-((1r,4r)-4-((2,2-difluoroethyl)amino)cyclohexyl)-2-(1H-imidazol-1-yl)-6-methyl-pyrimidine-4-carboxamide]: the concentration at 2 h in data set [1] (setting [3]) was found to be 2.19 µM; in data set [1] (setting [4]) it was 1.39 µM; in data set [1] (setting [5]), 9.37 µM; in data set [1] (setting [6]) it was 2.13 µM. In addition, in data set [1], the Kpu,u (unbound brain/plasma partition coefficient) at 2 h was 0.65. In addition, at Recombinant human CD38, the IC50 is at most 0.04 µM. In addition, the “Mouse brain (% unbound)” value in data set [2] stood at 63.4 % unbound.
Consider `O=C(N[C@H]1CC[C@H](NCC(F)F)CC1)c1cc(C2CC2)nc(-n2ccnc2)n1` [Example 3, 6-cyclopropyl-N-((1r,4r)-4-((2,2-difluoroethyl)amino)cyclohexyl)-2-(1H-imidazol-1-yl)pyrimidine-4-carboxamide], for which the concentration at 2 h in data set [1] (setting [3]) is 1.66 µM; in data set [1] (setting [4]) it was 0.224 µM; in data set [1] (setting [5]) it was 6.39 µM; in data set [1] (setting [6]) it was 0.469 µM. The Kpu,u (unbound brain/plasma partition coefficient) at 2 h in data set [1] was found to be 0.48. Further, the IC50 at Recombinant human CD38 was at most 0.04 µM. In addition, the “Mouse brain (% unbound)” value in data set [2] is on record as 13.5 % unbound.
With `Cc1cc(C(=O)N[C@H]2CC[C@H](N3CCC(F)(F)C3)CC2)nc(-n2ccnc2)n1` [Example 10, N-((1r,4r)-4-(3,3-difluoropyrrolidin-1-yl)cyclohexyl)-2-(1H-imidazol-1-yl)-6-methyl-pyrimidine-4-carboxamide], the concentration at 2 h is 5.2 µM in data set [1] (setting [3]), 0.507 µM in data set [1] (setting [4]), 15.1 µM in data set [1] (setting [5]) and 1.61 µM in data set [1] (setting [6]). For the same molecule, the Kpu,u (unbound brain/plasma partition coefficient) at 2 h in data set [1] came to 0.32. Further, the “brain permeability (in words)” value in data set [1] is “excellent brain permeability”. In addition, the IC50 at Recombinant human CD38 is at most 0.04 µM. Further, in data set [2], the “Mouse brain (% unbound)” value is reported as 9.7 % unbound.
Turning to `Cc1cc(C(=O)N[C@H]2CC[C@H](NC(C)(C)C(F)(F)F)CC2)nc(-n2ccnc2)n1` [Example 21, 2-(1H-imidazol-1-yl)-6-methyl-N-((1r,4r)-4-((1,1,1-trifluoro-2-methylpropan-2-yl)amino)cyclohexyl)pyrimidine-4-carboxamide], the concentration at 2 h in data set [1] (setting [3]) was determined as 5.47 µM; in data set [1] (setting [4]), 0.197 µM; in data set [1] (setting [5]) it was 11.9 µM; in data set [1] (setting [6]), 0.494 µM. For the same molecule, the Kpu,u (unbound brain/plasma partition coefficient) at 2 h in data set [1] stood at 0.4. The “brain permeability (in words)” value in data set [1] was “excellent brain permeability”. Also, at Recombinant human CD38, the IC50 is at most 0.1 µM. Also, the “Mouse brain (% unbound)” value in data set [2] came to 3.6 % unbound.
